Data taken from patent US8685977B2, “Chemical compounds” (Pfizer Limited, priority 2010, dated 2014).

These compounds were tested against T1, Nav1.7 (or SCN9A) channel (Homo sapiens, UniProt Q15858) (assay: Nav1.7 PatchXpress 7000 automated electrophysiology assay (HEK cells stably expressing hSCN9A)). Details: voltage-clamped at V1/2 of inactivation, read-out: Nav1.7 EIC50.
T1 construct: expressed in transfected cells
Assay type: cell-based
Protocol: The ability of the compounds of formula (I) to block the Nav1.7 (or SCN9A) channel was measured using the assays described below.
Human Embryonic Kidney (HEK) cells were transfected with an hSCN9A construct using lipofectamine reagent (Invitrogen), using standard techniques. Cells stably expressing the hSCN9A constructs were identified by their resistance to G-418 (400 μg/ml). Clones were screened for expression using the whole-cell voltage-clamp technique.
HEK cells stably transfected with hSCN9A were maintained in DMEM medium supplemented with 10% heat-inactivated fetal bovine serum and 400 μg/ml G-418 in an incubator at 37° C. with a humidified atmosphere of 10% CO2. For HTS, cells were harvested from flasks by trypsinization and replated in an appropriate multi-well plate (typically 96 or 384 wells/plate) such that confluence would be achieved within 24 hours of plating. For electrophysiological studies, cells were removed from the culture flask by brief trypsinization and re-plated at low density onto glass cover slips. Cells were typically used for electrophysiological experiments within 24 to 72 hours after plating.
Cover slips containing HEK cells expressing hSCN9A were placed in a bath on the stage of an inverted microscope and perfused (approximately 1 ml/minutes) with extracellular solution of the following composition: 138 mM NaCl, 2 mM CaCl2, 5.4 mM KCl, 1 mM MgCl2, 10 mM glucose, and 10 mM HEPES, pH 7.4, with NaOH. […] The osmolarity of the extracellular and intracellular solutions was 300 mOsm/kg and 295 mOsm/kg, respectively. All recordings were made at room temperature (22-24° C.) using AXOPATCH 200B amplifiers and PCLAMP software (Axon Instruments, Burlingame, Calif.).
HEK cells stably transfected with hSCN9A were viewed under Hoffman contrast optics and placed in front of an array of flow pipes emitting either control or compound-containing extracellular solutions. All compounds were dissolved in dimethyl sulfoxide to make 10 mM stock solutions, which were then diluted into extracellular solution to attain the final concentrations desired. […] The voltage-dependence of inactivation was determined by applying a series of depolarizing prepulses (8 sec long in 10 mV increments) from a negative holding potential. The voltage was then immediately stepped to 0 mV to assess the magnitude of the sodium current. Currents elicited at 0 mV were plotted as a function of prepulse potential to allow estimation of the voltage at which 50% of the channels were inactivated (midpoint of inactivation or V1/2). Compounds were tested for their ability to inhibit hSCN9A sodium channels by activating the channel with a 20 msec voltage step to 0 mV following an 8 second conditioning prepulse to the empirically determined V1/2. Compound effect (% inhibition) was determined by difference in current amplitude before and after application of test compounds. For ease of comparison, “estimated IC-50” (EIC50) values were calculated from single point electrophysiology data by the following equation, (tested concentration, uM)×(100-% inhibition/% inhibition). Inhibition values <20% and >80% were excluded from the calculation.
Electrophysiological assays were conducted with PatchXpress 7000 hardware and associated software (Molecular Devices Corp). All assay buffers and solutions were identical to those used in conventional whole-cell voltage clamp experiments described above. hSCN9A cells were grown as above to 50%-80% confluency and harvested by trypsinization. Trypsinized cells were washed and resuspended in extracellular buffer at a concentration of 1×10^6 cells/ml. The onboard liquid handling facility of the PatchXpress was used for dispensing cells and application of test compounds. Determination of the voltage midpoint of inactivation was as described for conventional whole-cell recordings. Cells were then voltage-clamped to the empirically determined V1/2 and current was activated by a 20 msec voltage step to 0 mV. […]

T1 sequence (Q15858 whole entry): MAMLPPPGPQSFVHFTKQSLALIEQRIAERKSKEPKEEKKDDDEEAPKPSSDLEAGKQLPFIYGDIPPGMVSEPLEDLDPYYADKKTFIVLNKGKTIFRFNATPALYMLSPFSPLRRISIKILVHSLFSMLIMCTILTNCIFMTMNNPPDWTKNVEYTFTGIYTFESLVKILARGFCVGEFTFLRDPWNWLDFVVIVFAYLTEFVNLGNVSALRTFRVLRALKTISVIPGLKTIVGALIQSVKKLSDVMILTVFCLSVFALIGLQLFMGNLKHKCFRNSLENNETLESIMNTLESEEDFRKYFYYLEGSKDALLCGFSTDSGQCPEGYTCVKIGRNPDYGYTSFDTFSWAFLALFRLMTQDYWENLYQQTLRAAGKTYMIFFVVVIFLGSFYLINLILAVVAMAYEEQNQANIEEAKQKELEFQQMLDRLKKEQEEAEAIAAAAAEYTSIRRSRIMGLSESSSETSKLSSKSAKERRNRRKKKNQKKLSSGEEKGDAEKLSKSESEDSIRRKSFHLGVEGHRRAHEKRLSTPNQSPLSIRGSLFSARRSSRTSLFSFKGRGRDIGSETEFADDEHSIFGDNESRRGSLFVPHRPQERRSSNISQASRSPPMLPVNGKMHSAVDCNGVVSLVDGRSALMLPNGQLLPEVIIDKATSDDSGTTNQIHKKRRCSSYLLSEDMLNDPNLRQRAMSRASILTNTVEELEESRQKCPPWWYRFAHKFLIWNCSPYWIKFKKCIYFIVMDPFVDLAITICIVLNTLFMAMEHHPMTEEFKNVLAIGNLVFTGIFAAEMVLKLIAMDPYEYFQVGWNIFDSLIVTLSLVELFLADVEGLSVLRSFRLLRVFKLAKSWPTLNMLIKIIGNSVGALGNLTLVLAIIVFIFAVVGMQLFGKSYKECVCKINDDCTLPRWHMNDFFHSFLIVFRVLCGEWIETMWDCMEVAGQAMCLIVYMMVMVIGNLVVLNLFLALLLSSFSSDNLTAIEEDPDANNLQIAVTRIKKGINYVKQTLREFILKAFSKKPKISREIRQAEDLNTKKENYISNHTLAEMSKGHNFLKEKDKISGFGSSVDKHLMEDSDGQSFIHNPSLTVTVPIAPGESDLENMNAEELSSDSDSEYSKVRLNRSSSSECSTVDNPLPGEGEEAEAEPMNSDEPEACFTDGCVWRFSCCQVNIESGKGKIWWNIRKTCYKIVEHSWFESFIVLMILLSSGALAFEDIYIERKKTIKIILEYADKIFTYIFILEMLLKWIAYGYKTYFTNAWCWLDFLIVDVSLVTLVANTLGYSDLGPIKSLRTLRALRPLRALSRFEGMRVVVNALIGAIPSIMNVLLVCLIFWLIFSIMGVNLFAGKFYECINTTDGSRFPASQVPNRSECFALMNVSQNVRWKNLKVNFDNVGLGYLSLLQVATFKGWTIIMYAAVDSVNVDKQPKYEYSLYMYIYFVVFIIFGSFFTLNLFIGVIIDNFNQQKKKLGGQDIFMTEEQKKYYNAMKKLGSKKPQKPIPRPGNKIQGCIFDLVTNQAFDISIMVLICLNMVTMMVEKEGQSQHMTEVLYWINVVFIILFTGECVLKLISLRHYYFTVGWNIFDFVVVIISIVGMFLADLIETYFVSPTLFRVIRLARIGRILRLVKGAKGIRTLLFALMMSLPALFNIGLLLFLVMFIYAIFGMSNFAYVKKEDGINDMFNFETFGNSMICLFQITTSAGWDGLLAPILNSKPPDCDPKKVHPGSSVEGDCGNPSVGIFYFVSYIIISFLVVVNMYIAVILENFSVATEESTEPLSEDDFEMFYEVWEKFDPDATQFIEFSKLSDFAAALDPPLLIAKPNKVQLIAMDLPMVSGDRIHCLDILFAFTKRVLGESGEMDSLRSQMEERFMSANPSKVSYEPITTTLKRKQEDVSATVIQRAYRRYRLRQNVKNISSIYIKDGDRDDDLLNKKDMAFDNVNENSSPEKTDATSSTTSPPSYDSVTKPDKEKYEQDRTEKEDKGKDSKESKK

Structure (SMILES) | IC50 [µM]
O=C(NS(=O)(=O)C1CC1)c1ccc(Oc2ccc(Cl)c(C(F)(F)F)c2)cc1 [Example 1, 4-[4-Chloro-3-(trifluoromethyl)phenoxy]-N-(cyclopropylsulfonyl)benzamide] | 0.81
CCc1cc(C(=O)NS(C)(=O)=O)ccc1Oc1ccc(Cl)c(Cl)c1 [Example 4, 4-(3,4-Dichlorophenoxy)-3-ethyl-N-(methylsulfonyl)benzamide] | 0.25
CS(=O)(=O)NC(=O)c1ccc(Oc2ccc(Cl)c(C(F)(F)F)c2)cc1F [Example 14, 4-(4-chloro-3-(trifluoromethyl)phenoxy)-2-fluoro-N-(methylsulfonyl)benzamide] | 0.85
CS(=O)(=O)NC(=O)c1ccc(Oc2ccc(Cl)c(C(F)(F)F)c2)cc1 [Example 15, 4-[4-chloro-3-(trifluoromethyl)phenoxy]-N-(methylsulfonyl)benzamide] | 0.93
CCc1cc(F)ccc1Oc1ccc(C(=O)NS(C)(=O)=O)c(F)c1 [Example 19, 4-(2-ethyl-4-fluorophenoxy)-2-fluoro-N-(methylsulfonyl)benzamide] | > 1
CCc1cc(F)ccc1Oc1ccc(C(=O)NS(C)(=O)=O)cc1F [Example 20, 4-(2-ethyl-4-fluorophenoxy)-3-fluoro-N-(methylsulfonyl)benzamide] | 5.4
CCc1cc(F)ccc1Oc1ccc(C(=O)NS(C)(=O)=O)cc1C#N [Example 22, 3-cyano-4-(2-ethyl-4-fluorophenoxy)-N-(methylsulfonyl)benzamide] | 5.2
CCS(=O)(=O)NC(=O)c1ccc(Oc2ccc(Cl)cc2)cc1 [Example 23, 4-(4-chlorophenoxy)-N-(ethylsulfonyl)benzamide] | 3.4
CS(=O)(=O)NC(=O)c1ccc(Oc2ccc(Cl)cc2)cc1 [Example 24, 4-(4-chlorophenoxy)-N-(methylsulfonyl)benzamide] | 5.7
CS(=O)(=O)NC(=O)c1ccc(Oc2ccc(C#N)c(C#N)c2)cc1 [Example 25, 4-(3,4-dicyanophenoxy)-N-(methylsulfonyl)benzamide] | > 10
O=C(NS(=O)(=O)C1CC1)c1ccc(Oc2ccc(Cl)cc2)cc1 [Example 26, 4-(4-chlorophenoxy)-N-(cyclopropylsulfonyl)benzamide] | 0.43
CS(=O)(=O)NC(=O)c1ccc(Oc2cccc(OC(F)(F)F)c2)cc1 [Example 30, N-(methylsulfonyl)-4-[3-(trifluoromethoxy)phenoxy]benzamide] | 0.76
CS(=O)(=O)NC(=O)c1c(F)cc(Oc2ccc(Cl)c(C(F)(F)F)c2)cc1F [Example 31, 4-(4-chloro-3-(trifluoromethyl)phenoxy)-2,6-difluoro-N-(methylsulfonyl)benzamide] | 5.7
CS(=O)(=O)NC(=O)c1c(F)cc(Oc2ccc(Cl)c(C(F)(F)F)c2)c(F)c1F [Example 32, 4-(4-chloro-3-(trifluoromethyl)phenoxy)-2,3,6-trifluoro-N-(methylsulfonyl)benzamide] | > 1
CCc1cc(F)ccc1Oc1ccc(C(=O)NS(C)(=O)=O)cc1 [Example 35, 4-(2-ethyl-4-fluorophenoxy)-N-(methylsulfonyl)benzamide] | 11
CS(=O)(=O)NC(=O)c1ccc(Oc2ccc(Cl)cc2Cl)cc1 [Example 38, 4-(2,4-dichlorophenoxy)-N-(methylsulfonyl)benzamide] | > 10
COc1cc(Oc2ccc(Cl)cc2OC(F)(F)F)ccc1C(=O)NS(C)(=O)=O [Example 39, 4-[4-chloro-2-(trifluoromethoxy)phenoxy]-2-methoxy-N-(methylsulfonyl)benzamide] | 9.3
COc1cc(Cl)ccc1Oc1ccc(C(=O)NS(C)(=O)=O)c(OC)c1 [Example 40, 4-(4-chloro-2-methoxyphenoxy)-2-methoxy-N-(methylsulfonyl)benzamide] | 25

Second part, the compound after the results:

IC50 [µM] | Structure (SMILES)
0.064 | CS(=O)(=O)NC(=O)c1cc(Cl)c(Oc2ccc(Cl)c(Cl)c2)cc1F [Example 2, 5-Chloro-4-(3,4-dichlorophenoxy)-2-fluoro-N-(methylsulfonyl)benzamide]
1.7 | CCc1cc(Cl)ccc1Oc1cc(F)c(C(=O)NS(C)(=O)=O)cc1F [Example 3, 4-(4-Chloro-2-ethylphenoxy)-2,5-difluoro-N-(methylsulfonyl)benzamide]
0.025 | CS(=O)(=O)NC(=O)c1cc(Cl)c(Oc2ccc(OC(F)(F)F)c(Cl)c2)cc1F [Example 7, 5-chloro-4-[3-chloro-4-(trifluoromethoxy)phenoxy]-2-fluoro-N-(methylsulfonyl)benzamide]
0.035 | Cc1cc(C(=O)NS(C)(=O)=O)c(F)cc1Oc1ccc(Cl)c(C(F)(F)F)c1 [Example 8, 4-[4-chloro-3-(trifluoromethyl)phenoxy]-2-fluoro-5-methyl-N-(methylsulfonyl)benzamide]
0.047 | CS(=O)(=O)NC(=O)c1cc(Cl)c(Oc2ccc(C(F)(F)F)c(Cl)c2)cc1F [Example 9, 5-chloro-4-(3-chloro-4-(trifluoromethyl)phenoxy)-2-fluoro-N-(methylsulfonyl)benzamide]
0.97 | COc1cc(C(=O)NS(C)(=O)=O)ccc1Oc1ccc(Cl)c(Cl)c1 [Example 10, 4-(3,4-dichlorophenoxy)-3-methoxy-N-(methylsulfonyl)benzamide]
0.43 | CS(=O)(=O)NC(=O)c1cc(Cl)c(Oc2ccc(Cl)cc2OC(F)F)cc1F [Example 11, 5-chloro-4-[4-chloro-2-(difluoromethoxy)phenoxy]-2-fluoro-N-(methylsulfonyl)benzamide]
2.5 | CS(=O)(=O)NC(=O)c1cc(F)c(Oc2ccc(OC(F)F)c(Cl)c2)cc1F [Example 13, 4-[3-chloro-4-(difluoromethoxy)phenoxy]-2,5-difluoro-N-(methylsulfonyl)benzamide]
0.04 | CS(=O)(=O)NC(=O)c1cc(Cl)c(Oc2ccc(Cl)c(C(F)(F)F)c2)cc1F [Example 16, 5-chloro-4-[4-chloro-3-(trifluoromethyl)phenoxy]-2-fluoro-N-(methylsulfonyl)benzamide]
0.032 | CS(=O)(=O)NC(=O)c1cc(Cl)c(Oc2ccc(Cl)c(OC(F)(F)F)c2)cc1F [Example 17, 5-chloro-4-[4-chloro-3-(trifluoromethoxy)phenoxy]-2-fluoro-N-(methylsulfonyl)benzamide]
0.37 | CCc1cc(F)ccc1Oc1cc(F)c(C(=O)NS(C)(=O)=O)cc1Cl [Example 18, 5-chloro-4-(2-ethyl-4-fluorophenoxy)-2-fluoro-N-(methylsulfonyl)benzamide]
0.45 | CS(=O)(=O)NC(=O)c1cc(F)c(Oc2ccc(Cl)c(Cl)c2)cc1F [Example 21, 4-(3,4-dichlorophenoxy)-2,5-difluoro-N-(methylsulfonyl)benzamide]
0.19 | CS(=O)(=O)NC(=O)c1ccc(Oc2ccc(Cl)c(Cl)c2)c(C(F)(F)F)c1 [Example 27, 4-(3,4-dichlorophenoxy)-N-(methylsulfonyl)-3-(trifluoromethyl)benzamide]
0.86 | CS(=O)(=O)NC(=O)c1ccc(Oc2ccc(Cl)c(Cl)c2)cc1F [Example 28, 4-(3,4-dichlorophenoxy)-2-fluoro-N-(methylsulfonyl)benzamide]
0.95 | CS(=O)(=O)NC(=O)c1ccc(Oc2ccc(Cl)c(Cl)c2)c(C#N)c1 [Example 29, 3-cyano-4-(3,4-dichlorophenoxy)-N-(methylsulfonyl)benzamide]
0.5 | CS(=O)(=O)NC(=O)c1cc(F)c(Oc2ccc(C(F)(F)F)c(Cl)c2)cc1F [Example 33, 4-(3-chloro-4-(trifluoromethyl)phenoxy)-2,5-difluoro-N-(methylsulfonyl)benzamide]
1.5 | CS(=O)(=O)NC(=O)c1ccc(Oc2ccc(Cl)c(Cl)c2)c(F)c1 [Example 34, 4-(3,4-dichlorophenoxy)-3-fluoro-N-(methylsulfonyl)benzamide]
